± gives the expanded uncertainty stated by the source.
Assays:
[1] = refractive index (Na D-line) (dimensionless); xn = mol fraction of the nth substance listed; details: 298.15 K, 101 kPa, Liquid, Standard Abbe refractometry
[2] = xn = mol fraction of the nth substance listed; details: 298.15 K, 101 kPa, Liquid, Vibrating tube method
[3] = refractive index (Na D-line) (dimensionless); details: 298.15 K; 101.33 kPa; Liquid; Standard Abbe refractometry
[4] = 298.15 K; 101.33 kPa; Liquid; Vibrating tube method

COCCO [2-methoxyethan-1-ol] + Cc1ccc(C)cc1
refractive index ([1]; x2 = 0.0499): 1.4069 ± 0.0004
refractive index ([1]; x2 = 0.0999): 1.4136 ± 0.0004
refractive index ([1]; x2 = 0.1999): 1.4253 ± 0.0004
refractive index ([1]; x2 = 0.3): 1.4367 ± 0.0004
refractive index ([1]; x2 = 0.3999): 1.4462 ± 0.0004
refractive index ([1]; x2 = 0.5001): 1.4557 ± 0.0004
refractive index ([1]; x2 = 0.6): 1.4641 ± 0.0004
refractive index ([1]; x2 = 0.6999): 1.4717 ± 0.0004
refractive index ([1]; x2 = 0.7999): 1.4793 ± 0.0004
refractive index ([1]; x2 = 0.8999): 1.4862 ± 0.0004
refractive index ([1]; x2 = 0.9499): 1.4895 ± 0.0004
mass density ([2]; x2 = 0.0499): 952.02 ± 0.13 kg/m3
mass density ([2]; x2 = 0.0999): 944.39 ± 0.13 kg/m3
mass density ([2]; x2 = 0.1999): 930.07 ± 0.14 kg/m3
mass density ([2]; x2 = 0.3): 917.28 ± 0.14 kg/m3
mass density ([2]; x2 = 0.3999): 905.75 ± 0.14 kg/m3
mass density ([2]; x2 = 0.5001): 895.38 ± 0.14 kg/m3
mass density ([2]; x2 = 0.6): 885.92 ± 0.14 kg/m3
mass density ([2]; x2 = 0.6999): 877.19 ± 0.14 kg/m3
mass density ([2]; x2 = 0.7999): 869.23 ± 0.14 kg/m3
mass density ([2]; x2 = 0.8999): 862.2 ± 0.14 kg/m3
mass density ([2]; x2 = 0.9499): 859.28 ± 0.14 kg/m3

COCCO [2-methoxyethan-1-ol]
refractive index [3]: 1.39981 ± 0.00033
mass density [4]: 959.73 ± 0.13 kg/m3

COCCO [2-methoxyethan-1-ol] + c1ccccc1
refractive index ([1]; x2 = 0.05): 1.4054 ± 0.0004
refractive index ([1]; x2 = 0.0998): 1.4105 ± 0.0004
refractive index ([1]; x2 = 0.2001): 1.4193 ± 0.0004
refractive index ([1]; x2 = 0.2998): 1.4286 ± 0.0004
refractive index ([1]; x2 = 0.4): 1.4385 ± 0.0004
refractive index ([1]; x2 = 0.4999): 1.4486 ± 0.0004
refractive index ([1]; x2 = 0.5999): 1.4586 ± 0.0004
refractive index ([1]; x2 = 0.7): 1.4679 ± 0.0004
refractive index ([1]; x2 = 0.8): 1.477 ± 0.0004
refractive index ([1]; x2 = 0.8998): 1.4864 ± 0.0004
refractive index ([1]; x2 = 0.95): 1.4916 ± 0.0004
mass density ([2]; x2 = 0.05): 955.11 ± 0.13 kg/m3
mass density ([2]; x2 = 0.0998): 950.35 ± 0.13 kg/m3
mass density ([2]; x2 = 0.2001): 940.54 ± 0.14 kg/m3
mass density ([2]; x2 = 0.2998): 930.95 ± 0.14 kg/m3
mass density ([2]; x2 = 0.4): 921.55 ± 0.14 kg/m3
mass density ([2]; x2 = 0.4999): 912.55 ± 0.14 kg/m3
mass density ([2]; x2 = 0.5999): 903.8 ± 0.14 kg/m3
mass density ([2]; x2 = 0.7): 895.3 ± 0.14 kg/m3
mass density ([2]; x2 = 0.8): 887.18 ± 0.14 kg/m3
mass density ([2]; x2 = 0.8998): 879.76 ± 0.14 kg/m3
mass density ([2]; x2 = 0.95): 876.36 ± 0.14 kg/m3

COCCO [2-methoxyethan-1-ol] + Cc1ccccc1
refractive index ([1]; x2 = 0.05): 1.4048 ± 0.0004
refractive index ([1]; x2 = 0.0998): 1.4113 ± 0.0004
refractive index ([1]; x2 = 0.1999): 1.4233 ± 0.0004
refractive index ([1]; x2 = 0.3001): 1.434 ± 0.0004
refractive index ([1]; x2 = 0.4): 1.4437 ± 0.0004
refractive index ([1]; x2 = 0.4999): 1.453 ± 0.0004
refractive index ([1]; x2 = 0.6): 1.4616 ± 0.0004
refractive index ([1]; x2 = 0.7001): 1.4701 ± 0.0004
refractive index ([1]; x2 = 0.8): 1.4782 ± 0.0004
refractive index ([1]; x2 = 0.9): 1.486 ± 0.0004
refractive index ([1]; x2 = 0.9498): 1.4899 ± 0.0004
mass density ([2]; x2 = 0.05): 953.61 ± 0.13 kg/m3
mass density ([2]; x2 = 0.0998): 947.42 ± 0.13 kg/m3
mass density ([2]; x2 = 0.1999): 935.21 ± 0.14 kg/m3
mass density ([2]; x2 = 0.3001): 923.65 ± 0.14 kg/m3
mass density ([2]; x2 = 0.4): 912.84 ± 0.14 kg/m3
mass density ([2]; x2 = 0.4999): 902.65 ± 0.15 kg/m3
mass density ([2]; x2 = 0.6): 893.14 ± 0.14 kg/m3
mass density ([2]; x2 = 0.7001): 884.22 ± 0.14 kg/m3
mass density ([2]; x2 = 0.8): 875.94 ± 0.14 kg/m3
mass density ([2]; x2 = 0.9): 868.48 ± 0.14 kg/m3
mass density ([2]; x2 = 0.9498): 865.12 ± 0.14 kg/m3

Source: the NIST ThermoML archive (doi:10.1016/j.fluid.2015.01.002)
